Values joined by “and” are separate entries in the source; they are usually repeats but may differ in a detail not shown here. Identical values can stand only once.
Assays:
Format in all cases: cell-based
[1] = tested on: small cell lung cancer model LXFS 650; experiment: 3D clonogenic assay, Example 2, LXFS 650
Method: (§1) The present study investigated plinabulin for anticancer activity ex vivo in 68 out of 71 originally planned patient-derived xenograft (PDX) models representing major cancer types. Experiments were performed using a 3D clonogenic assay in a 96-well format with colony count based on image analysis as a read-out. By using this assay, the investigational compound was assessed for the ability to inhibit anchorage independent growth and ex vivo colony formation of tumor cells in semi-solid medium.
(§2) A master stock solution of plinabulin was prepared by dissolving the compound in DMSO at a concentration of 9.9 mM. Working stock solutions were prepared by diluting the master stock solution with DMSO to a concentration of 0.99 mM (330-fold the highest test concentration). Small aliquots of the master and working stock were stored at −20° C. […]
(§3) Plinabulin was investigated in 68 PDX models representing a number of cancer types. […] The percentage of viable cells was determined in a Neubauer-hemocytometer using trypan blue exclusion. […]
(§4) The clonogenic assay was carried out in a 96 well plate format using ultra low attachment plates. […] Cultures were incubated at 37° C. and 7.5% CO2 in a humidified atmosphere 13 days in total and monitored closely for colony growth using an inverted microscope. […]

osteosarcoma = experiment: 3D clonogenic assay, Example 2, osteosarcoma; settings: n=3 models
Method: as §1, §2, §3, §4

BXF 2211 = experiment: 3D clonogenic assay, Example 1, BXF 2211; settings: model BXF 2211
Method: (§5) In the present study, plinabulin was characterized for its ability to inhibit anchorage independent growth and ex vivo colony formation of tumor cells in semi-solid medium. The compound was investigated in 87 out of 93 originally planned tumor xenografts representing all major cancer types using a 3D clonogenic assay in a 96-well format with colony count based on image analysis as read-out. By using this assay, the investigational compound was assessed for the ability to inhibit anchorage independent growth and ex vivo colony formation of tumor cells in semi-solid medium.
as §2
(§6) Plinabulin was investigated in 87 PDX models representing a number of cancer types. […] The percentage of viable cells was determined in a Neubauer-hemocytometer using trypan blue exclusion. […]
as §4

[2] = tested on: (Asian) gastric cancer model GXA 3067; experiment: 3D clonogenic assay, Example 2, GXA 3067; settings: read-out: abs. IC50
Method: as §1, §2, §3, §4

[3] = tested on: small cell lung cancer model LXFS 2156; experiment: 3D clonogenic assay, Example 2, LXFS 2156
Method: as §1, §2, §3, §4

small cell lung cancer [4] = experiment: 3D clonogenic assay, Example 2, small cell lung cancer; settings: n=7 models
Method: as §1, §2, §3, §4

[5] = tested on: small cell lung cancer model LXFS 1129; experiment: 3D clonogenic assay, Example 2, LXFS 1129
Method: as §1, §2, §3, §4

[6] = tested on: soft tissue sarcoma models; experiment: 3D clonogenic assay, Example 2, soft tissue sarcoma models; settings: n=8 models
Method: as §1, §2, §3, §4

bladder cancer models = experiment: 3D clonogenic assay, Example 2, bladder cancer models; settings: n=6 models
Method: as §1, §2, §3, §4

[7] = tested on: Her2-enriched breast cancer models; experiment: 3D clonogenic assay, Example 2, Her2-enriched breast cancer models; settings: n=6 models
Method: as §1, §2, §3, §4

soft tissue sarcoma = experiment: 3D clonogenic assay, Example 1, soft tissue sarcoma; settings: n=10 models
Method: as §5, §2, §6, §4

melanoma models [8] = experiment: 3D clonogenic assay, Example 1, melanoma models; settings: n=19 models
Method: as §5, §2, §6, §4

[9] = tested on: osteosarcoma model SXFO 1186; experiment: 3D clonogenic assay, Example 2, SXFO 1186
Method: as §1, §2, §3, §4

BXF 1258 = experiment: 3D clonogenic assay, Example 1, BXF 1258; settings: model BXF 1258
Method: as §5, §2, §6, §4

gastric cancer (Asian) = experiment: 3D clonogenic assay, Example 2, gastric cancer (Asian); settings: n=3 models
Method: as §1, §2, §3, §4

[10] = tested on: gastric cancer models (Caucasian); experiment: 3D clonogenic assay, Example 2, gastric cancer models (Caucasian); settings: n=3 models
Method: as §1, §2, §3, §4

melanoma models [11] = experiment: 3D clonogenic assay, Example 2, melanoma models; settings: n=9 models
Method: as §1, §2, §3, §4

[12] = tested on: 87 PDX models of various histotypes; experiment: 3D clonogenic assay, Example 1, all PDX models
Method: as §5
(§7) A master stock solution of plinabulin was prepared by dissolving the compound in DMSO at a concentration of 9.9 mM. Working stock solutions were prepared by diluting the master stock solution with DMSO to a concentration of 0.99 mM (330-fold the highest test concentration). Small aliquots of the master and working stock were stored at −20° C. On each day of an experiment, an aliquot of the working stock was used and stored at room temperature prior to and during treatment. All liquid handling steps were performed using a Tecan Freedom EVO 200 robotic platform. First, serial dilutions of the working stock solution were done in DMSO. The DMSO dilutions were then diluted 1:22 into cell culture medium (IMDM, supplemented with 20% (v/v) fetal calf serum, and 50 μg/ml gentamicin) in an intermediate dilution plate. Finally, 10 μl taken from the intermediate dilution plate were transferred to 140 μl/well of the final assay plate. Thus, the DMSO working stock was diluted 1:330, and the DMSO concentration in the assay was 0.3% v/v in all wells.
(§8) Plinabulin was investigated in 87 PDX models representing a number of cancer types. Tumors were passaged as subcutaneous xenografts in NMRI nu/nu mice. At a tumor volume of 400-1000 mm^3 tumor-bearing mice were euthanized and tumors were collected under sterile conditions without delay according to relevant SOPs and the relevant animal welfare guidelines published by the FELASA and the GV-SOLAS. Tumors were mechanically disaggregated and subsequently incubated with an enzyme cocktail consisting of collagenase type IV (41 U/ml), DNase I (125 U/ml), hyaluronidase type III (100 U/ml), and dispase II (1 U/ml) in RPMI 1640 medium (Life Technologies) at 37° C. for 60-120 minutes. Cells were passed through sieves of 100 μm and 40 μm mesh size (Cell Strainer, BD Falcon™), and washed with RPMI 1640 medium (Biochrom). The percentage of viable cells was determined in a Neubauer-hemocytometer using trypan blue exclusion. Aliquots of the cells were frozen down and stored in a liquid nitrogen vapor phase. On each day of an experiment, a frozen aliquot of tumor cells was thawed and used for the preparation of assay plates.
(§9) The clonogenic assay was carried out in a 96 well plate format using ultra low attachment plates. For each test, cells were prepared as described above and assay plates were prepared as follows: each test well contained a layer of semi-solid medium with tumor cells (50 μl), and a second layer of medium supernatant with or without test compound (100 μl). The cell layer consisted of 2.5-12.5×10^3 tumor cells per well, which were seeded on day 0 (d0) in 50 μl/well cell culture medium (IMDM, supplemented with 20% (v/v) fetal calf serum, 50 μg/ml gentamicin, and 0.4% (w/v) agar). After 24 h, the soft-agar layer was covered with 90 μl of the same culture medium without agar. Seven days after seeding 10 μl of test compound or control medium was added, and left on the cells for 24 h. Every 96 well plate included six DMSO-treated control wells and drug-treated wells in duplicate at 9 concentrations. After the incubation time of 24 h the supernatant (90 μl medium without agar +10 μl compound/control) was changed against drug free medium and incubated until the end of the study. Cultures were incubated at 37° C. and 7.5% CO2 in a humidified atmosphere 13 days in total and monitored closely for colony growth using an inverted microscope. […]

small cell lung cancer [13] = experiment: 3D clonogenic assay, Example 1, small cell lung cancer; settings: n=7 models
Method: as §5, §2, §6, §4

BXF 2775 = experiment: 3D clonogenic assay, Example 1, BXF 2775; settings: model BXF 2775
Method: as §5, §2, §6, §4

[14] = tested on: 68 PDX models of various histotypes; experiment: 3D clonogenic assay, Example 2, all PDX models
Method: as §1
as §7, with “1:22 into the cell culture” for “1:22 into cell culture”, “was diluted at 1:330, and” for “was diluted 1:330, and”
as §8, with “68” for “87”
as §9, with “above (Section 6.6)” for “above”, “2.5-12.5·10^3” for “2.5-12.5×10^3”

[15] = tested on: central nervous system cancer; experiment: 3D clonogenic assay, Example 2, central nervous system cancer; settings: n=6 models
Method: as §1, §2, §3, §4

bladder cancer = experiment: 3D clonogenic assay, Example 1, bladder cancer; settings: n=9 models
Method: as §5, §2, §6, §4

[16] = tested on: Triple negative breast cancer (MAXFTN); experiment: 3D clonogenic assay, Example 2, triple negative breast cancer; settings: based on IC70, FIG. 7
Method: as §1, §2, §3, §4

SXFS 627 = experiment: 3D clonogenic assay, Example 1, SXFS 627; settings: model SXFS 627
Method: as §5, §2, §6, §4

[17] = sigmoidal concentration-effect curves

## CC(C)(C)c1[nH]cnc1/C=c1\[nH]c(=O)/c(=C/c2ccccc2)[nH]c1=O [plinabulin, (3Z,6Z)-3-Benzylidene-6-{[5-(2-methyl-2-propanyl)-1H-imidazol-4-yl]methylene}-2,5-piperazinedione]
[1]
  abs. IC70: 32 nM
[1]; read-out: abs. IC50
  IC50: 22 nM
osteosarcoma
  geom. mean abs. IC70: 624 nM
osteosarcoma; read-out: geom. mean abs. IC50
  IC50: 117 nM
BXF 2211
  absolute IC70: 3 nM
[2]
  IC50: 26 nM
[3]
  abs. IC70: 15 nM
[3]; read-out: abs. IC50
  IC50: 7 nM
Small cell lung cancer [4]
  geom. mean abs. IC70: 385 nM
Small cell lung cancer [4]; read-out: geom. mean abs. IC50
  IC50: 74 nM
[5]
  abs. IC70: 32 nM
[6]
  geometric mean absolute IC70: > 3000 nM
[6]; read-out: geom. mean abs. IC50
  IC50: 2580 nM
Bladder cancer models
  geometric mean absolute IC70: > 3000 nM
[7]
  geometric mean absolute IC70: > 3000 nM
[7]; read-out: geom. mean abs. IC50
  IC50: 2250 nM
Soft tissue sarcoma
  geom. mean absolute IC70: 57 nM
Melanoma models [8]
  geometric mean absolute IC70: 1105 nM
[9]
  abs. IC70: 27 nM
[9]; read-out: abs. IC50
  IC50: 19 nM
BXF 1258
  absolute IC70: 3 nM
Gastric cancer (Asian)
  geom. mean abs. IC70: 319 nM
Gastric cancer (Asian); read-out: geom. mean abs. IC50
  IC50: 166 nM
[10]
  geometric mean absolute IC70: > 3000 nM
Melanoma models [11]
  geometric mean absolute IC70: > 3000 nM
Melanoma models [11]; read-out: geom. mean abs. IC50
  IC50: 1370 nM
[12]; 87 PDX models
  Sensitive Tumors, Number, Based on Abs. IC70: 40 out of 87 and 40/87
  Sensitive Tumors, Number, Based on Rel. IC70: 23/87
  Sensitive Tumors, Percentage, Based on Abs. IC70: 46%
  Sensitive Tumors, Percentage, Based on Rel. IC70: 26%
[12]; all 87 PDX models, 24 h treatment, 13 days culture
  geometric mean absolute IC70, tumor colony formation: 166 nM
[12]; geometric means
  Fold difference of IC70 of sensitive tumors vs. all tumors, Based on Abs. IC70: 6.8 fold
  Fold difference of IC70 of sensitive tumors vs. all tumors, Based on Rel. IC70: 4.6 fold
[12]; [17]
  inhibition of tumor colony formation (in words): inhibited tumor colony formation in a concentration-dependent manner in almost all cell lines
Small cell lung cancer [13]
  geom. mean absolute IC70: 35 nM
BXF 2775
  absolute IC70: 3 nM
[14]; 68 PDX models
  Sensitive Tumors, Number, Based on Abs. IC70: 9 out of 68 and 9/68
  Sensitive Tumors, Number, Based on Rel. IC70: 27/68
  Sensitive Tumors, Percentage, Based on Abs. IC50: 35%
  Sensitive Tumors, Percentage, Based on Abs. IC70: 13%
  Sensitive Tumors, Percentage, Based on Rel. IC50: 50%
  Sensitive Tumors, Percentage, Based on Rel. IC70: 40%
[14]; all 68 PDX models, treatment from day 7 to day 8
  geometric mean absolute IC70, tumor colony formation: 1780 nM
[14]; all 68 PDX models, treatment from day 7 to day 8, read-out: geometric mean absolute IC50, tumor colony formation
  IC50: 600 nM
[14]; geometric means
  Fold difference of IC50 of sensitive tumors vs. all tumors, Based on Abs. IC50: 10.7 fold
  Fold difference of IC50 of sensitive tumors vs. all tumors, Based on Rel. IC50: 3.4 fold
  Fold difference of IC70 of sensitive tumors vs. all tumors, Based on Abs. IC70: 27.1 fold
  Fold difference of IC70 of sensitive tumors vs. all tumors, Based on Rel. IC70: 4.6 fold
[14]; [17]
  inhibition of tumor colony formation (in words): inhibited tumor colony formation in a concentration-dependent manner in almost all cell lines
[15]
  geom. mean abs. IC70: 1521 nM
[15]; read-out: geom. mean abs. IC50
  IC50: 426 nM
Bladder cancer
  geom. mean absolute IC70: 38 nM
[16]
  sensitivity to plinabulin (in words): sensitive
SXFS 627
  absolute IC70: 3 nM

— patent publication US20240408082A1, “METHODS FOR TREATING CANCERS AND TUMORS” (BEYONDSPRING PHARMACEUTICALS, INC., priority 2021, published 2024)
